≈ marks a conversion by molar mass, not a printed value.
Key:
S. sanguinis = experiment: microbe, parasite or virus in culture; type: cell-based, Streptococcus sanguinis; settings: peptides 0–50 μM, 16 h, 37 °C, microaerophilic, A620 nm, three separate experiments
Source text: (§1) Streptococcus mutans Clarke (strain designation NCTC 10449), Pseudomonas aeruginosa (Schroeter) Migula (strain designation PAO1), Fusobacterium nucleatum, subspecies nucleatum (strain VPI 4355), and Porphyromonas gingivalis (strain 2561) were purchased from ATCC (LGC Standards Srl, Milan, Italy). Streptococcus mitis, Streptococcus oralis, and Streptococcus sanguinis were obtained from clinical isolates and characterized by morphological, biochemical, and molecular typing. S. mutans, S. mitis, S. oralis, and S. sanguinis were maintained in Brain Heart Infusion (BHI) broth or agar under microaerophilic conditions. P. aeruginosa was maintained in trypticase soy (TS) agar or broth. F. nucleatum was maintained in TS agar or broth with defibrinated sheep blood under anaerobic conditions. P. gingivalis was maintained in ATCC Medium 2722 supplemented with TS broth or agar under anaerobic conditions. Before the experiments, bacterial cultures were inoculated in fresh media (dilution 1:100) and grown for 16 h at 37 °C.
(§2) The antimicrobial activities of the tested peptides were assessed through the determination of the minimum inhibitory concentration (MIC) standardized by the Clinical and Laboratory Standards Institute. Bacterial inocula were diluted in 10 mL of MHB […]. The concentration of the bacteria was adjusted to 0.5 McFarland standard, and the bacteria were dispensed in 96-well microtiter plates (final bacterial concentration: 1 × 10^4 CFU/well). Peptides were dissolved in sterile water (stock concentration: 2 mM) and added at final concentrations ranging from 0 to 50 µM. Plates were incubated at 37 °C for 16 h. At the end of incubation, bacterial growth was recorded using a microplate reader (Varioskan Lux Reader; Thermo Fisher Scientific, Milan, Italy) by quantifying the adsorption at 620 nm. Cultures were then opportunely diluted and seeded on agar plates. Bacterial cultures inoculated with the highest final concentration of the vehicle (sterile water) or chlorhexidine hydrochloride salt (CHX, concentration range: 0.05 to 500 μg/mL; Merck, Milan, Italy) were included as controls in each test. Experiments were performed in triplicate.

P. gingivalis = experiment: microbe, parasite or virus in culture; type: cell-based, Porphyromonas gingivalis; settings: peptides 0–50 μM, 16 h, 37 °C, anaerobic, A620 nm, three separate experiments
Source text: as §1, §2

S. mutans = experiment: microbe, parasite or virus in culture; type: cell-based, Streptococcus mutans; settings: peptides 0–50 μM, 16 h, 37 °C, microaerophilic, A620 nm, three separate experiments
Source text: as §1, §2

[1] = test system: S. mutans bacteriocin production against S. oralis; experiment: Bacteriocin overlay assay, S. mutans spotted on S. oralis; type: cell-based, Streptococcus mutans; settings: CSP1 20 μM alone vs vehicle, 16 h, 37 °C, microaerophilic
Description: During the formation of complex biofilm such as dental plaque, the ability of S. mutans to compete with other commensal species determines the success of the cariogenesis process. S. mutans uses antibacterial peptides, namely, bacteriocins, to overcome and subvert the composition of dental microbiota. We investigated the production of bacteriocins using the overlay assay. Overnight cultures of S. mitis, S. oralis, S. sanguinis, P. aeruginosa, F. nucleatum, or P. gingivalis were diluted 1:100 in BHI or TS broth and incubated at 37 °C until they reached an OD620 of 0.3. Cultures were added with agar (BD Difco^TM Agar) at the final concentration of 1.5% w/v and transferred in plates. Overnight cultures of S. mutans were diluted 1:100 in BHI and added with peptides (20 μM) or the vehicle with or without CSP1. Culture media were supplemented with agar to reach the final concentration of 0.7% w/v. The solutions were spotted on the surface of agar plates prepared as described above. The plates were kept on the benchtop for 30 min, allowing the agar containing S. mutans to solidify, and then incubated at 37 °C for 16 h under microaerophilic or anaerobic conditions, as required.
Spots (10 for each experimental group) were acquired and analyzed using NIH Image J software (version 1.53t August 2022, https://imagej.nih.gov/ij/index.html; accessed on 7 September 2022). The appearance of a clear area on the plate (bacterial growth inhibition) was evaluated as indicative of bacteriocin activity. The diameters of the area were measured in a blinded fashion.

comE gene = experiment: qRT-PCR, comE gene expression; type: cell-based, Streptococcus mutans; settings: CSP1 20 μM, planktonic, 8 h, qPCR
Description: S. mutans was cultured in BHI supplemented with peptides or the vehicle. Cultures were centrifuged, and total RNA was isolated and purified from the bacterial pellets using the GRS Total RNA Kit—Bacteria (GK16.0100; GRISP Research Solution, Porto, Portugal), following the manufacturer’s instructions. Purified RNA was subjected to DNase I treatment to remove contaminating DNA. The RNA yield and purity were assessed by measuring the absorbance, and only samples with a ratio of 260/280 nm in the 1.8–2 range were used. cDNA was generated using the cDNA RT kit with an RNAse inhibitor (Applied Biosystems; Monza, Milan). Quantitative PCR (qRT-PCR) was performed using SYBR green mixture (iScript One Step RT-PCR kit; Bio-Rad, Segrate, Milan) to determine the transcript levels of genes using the oligonucleotides listed in Table 3. The gyrA gene served as the housekeeping gene.

Structure (SMILES): CC[C@H](C)[C@H](NC(=O)[C@H](Cc1ccccc1)NC(=O)[C@H](CC(=O)O)NC(=O)[C@H](CCCNC(=N)N)NC(=O)[C@H](Cc1ccccc1)NC(=O)[C@H](Cc1ccccc1)NC(=O)[C@H](CCCCN)NC(=O)[C@H](CO)NC(=O)[C@H](CC(C)C)NC(=O)[C@H](CCCNC(=N)N)NC(=O)[C@H](CCSC)NC(=O)[C@@H](N)CCC(=O)O)C(=O)N[C@@H](CC(C)C)C(=O)N[C@@H](CCC(N)=O)C(=O)N[C@@H](CCCNC(=N)N)C(=O)N[C@@H](CCCCN)C(=O)N[C@@H](CCCCN)C(=O)O [CSP1]
- Minimum inhibitory concentration (MIC), S. sanguinis (S. sanguinis): 21 µM (≈ 47.1 µg/mL)
- Minimum inhibitory concentration (MIC), P. gingivalis (P. gingivalis): >50 µM
- Minimum inhibitory concentration (MIC), S. mutans (S. mutans): 30 µM (≈ 67.3 µg/mL)
- Growth inhibition of co-cultured S. oralis by S. mutans stimulated with peptide (diameter of clear area) [1]: significantly inhibited the growth
- Expression of comE in S. mutans (comE gene): increased the expression

From PMC9785397, “Exploiting Conserved Quorum Sensing Signals in Streptococcus mutans and Streptococcus pneumoniae” (Microorganisms, 2022)
